Results: patent publication US6387850B1, “Pesticide composition and method” (Application Technologies, Inc., priority 1998, dated 2002)

Tests used:
Test in all cases: Field weed control in glyphosate-tolerant soybeans, visual rating
Assay type in all cases: in vivo
Details in all cases: 23 days after application, scale 0 = no, 10 = complete weed control
[1] = test system: volunteer corn (Zea mays)
Excerpt: (§1) Materials and Methods: Applications were made to glyphosate-tolerant soybeans on Jun. 10, 1998. Weed species present ranging in height from 5 to 20 cm included giant foxtail (Setaria faberii), barnyard grass (Echinochloa crus-galli), volunteer corn (Zea mays) and yellow foxtail (Setaria glauca) Treatments were applied using Spraying Systems Turbo TeeJet TT-11002 nozzles spaced 50 cm apart on the spray boom at 207 kPa spray pressure resulting in a spray volume application of […] liters per hectare.
(§2) Spray solutions consisted of two comparison levels of mineral hardness as measured by TDS in ppm. The original solution consisted of 10 ppm. The second solution measuring 400 ppm was established using calcium chloride at approximately 227 grams per 378 liters.
(§3) Herbicide applications of glyphosate in form of Roundup Ultra® (Monsanto Company) formulation were applied at four rates: 26, 53, 105 and 210 grams of acid equivalent per hectare (g ae/ha) A spray adjuvant, Array® at 4 kilograms per 378 liters of spray solution was added to the spray solution prior to the addition of the herbicide. Array was evaluated across herbicide and spray solution treatments. Array consists of a micro-homogenized combination of AMS (ammonium sulfate) fertilizer at 94.4% analysis 21-0-0-24 (nitrogen-phosphorus-potassium-sulfur) and DR 2000 (Rhodia Surfactants) at 5.6%, a short-chain guar-based polymer.

[2] = test system: giant foxtail (Setaria faberii)
Excerpt: as §1, §2, §3

[3] = test system: barnyard grass (Echinochloa crus-galli)
Excerpt: as §1, §2, §3

[4] = test system: yellow foxtail (Setaria glauca)
Excerpt: as §1, §2, §3

[5] = 26 g ae/ha, solution TDS 10 ppm, Array 4 kg/378 L Yes
[6] = 26 g ae/ha, solution TDS 10 ppm, Array No
[7] = 26 g ae/ha, solution TDS 400 ppm, Array 4 kg/378 L Yes
[8] = 26 g ae/ha, solution TDS 400 ppm, Array No
[9] = 53 g ae/ha, solution TDS 10 ppm, Array 4 kg/378 L Yes
[10] = 53 g ae/ha, solution TDS 10 ppm, Array No
[11] = 53 g ae/ha, solution TDS 400 ppm, Array 4 kg/378 L Yes
[12] = 53 g ae/ha, solution TDS 400 ppm, Array No
[13] = 105 g ae/ha, solution TDS 10 ppm, Array 4 kg/378 L Yes
[14] = 105 g ae/ha, solution TDS 10 ppm, Array No
[15] = 105 g ae/ha, solution TDS 400 ppm, Array 4 kg/378 L Yes
[16] = 105 g ae/ha, solution TDS 400 ppm, Array No
[17] = 210 g ae/ha, solution TDS 10 ppm, Array 4 kg/378 L Yes
[18] = 210 g ae/ha, solution TDS 10 ppm, Array No
[19] = 210 g ae/ha, solution TDS 400 ppm, Array 4 kg/378 L Yes
[20] = 210 g ae/ha, solution TDS 400 ppm, Array No

O=C(O)CNCP(=O)(O)O [Glyphosate, glyphosate]
10: Visual rating of weed control, Volunteer Corn [1, 17] | Visual rating of weed control, Giant Foxtail [2, 17] | Visual rating of weed control, Barnyard Grass [3, 17]
2: Visual rating of weed control, Volunteer Corn [1, 5] | Visual rating of weed control, Volunteer Corn [1, 11] | Visual rating of weed control, Volunteer Corn [1, 16] | Visual rating of weed control, Giant Foxtail [2, 6] | Visual rating of weed control, Giant Foxtail [2, 11] | Visual rating of weed control, Giant Foxtail [2, 16] | Visual rating of weed control, Barnyard Grass [3, 6] | Visual rating of weed control, Barnyard Grass [3, 11] | Visual rating of weed control, Barnyard Grass [3, 16] | Visual rating of weed control, Yellow Foxtail [4, 5] | Visual rating of weed control, Yellow Foxtail [4, 6] | Visual rating of weed control, Yellow Foxtail [4, 11] | Visual rating of weed control, Yellow Foxtail [4, 16]
8: Visual rating of weed control, Volunteer Corn [1, 13] | Visual rating of weed control, Giant Foxtail [2, 13] | Visual rating of weed control, Yellow Foxtail [4, 18]
6: Visual rating of weed control, Volunteer Corn [1, 19] | Visual rating of weed control, Giant Foxtail [2, 14] | Visual rating of weed control, Giant Foxtail [2, 19] | Visual rating of weed control, Barnyard Grass [3, 19]
7: Visual rating of weed control, Barnyard Grass [3, 13] | Visual rating of weed control, Yellow Foxtail [4, 13]
3: Visual rating of weed control, Volunteer Corn [1, 10] | Visual rating of weed control, Volunteer Corn [1, 15] | Visual rating of weed control, Giant Foxtail [2, 5] | Visual rating of weed control, Giant Foxtail [2, 10] | Visual rating of weed control, Giant Foxtail [2, 15] | Visual rating of weed control, Barnyard Grass [3, 5] | Visual rating of weed control, Barnyard Grass [3, 15] | Visual rating of weed control, Yellow Foxtail [4, 10] | Visual rating of weed control, Yellow Foxtail [4, 15]
1: Visual rating of weed control, Volunteer Corn [1, 6] | Visual rating of weed control, Volunteer Corn [1, 7] | Visual rating of weed control, Volunteer Corn [1, 12] | Visual rating of weed control, Giant Foxtail [2, 7] | Visual rating of weed control, Giant Foxtail [2, 12] | Visual rating of weed control, Barnyard Grass [3, 7] | Visual rating of weed control, Barnyard Grass [3, 12] | Visual rating of weed control, Yellow Foxtail [4, 7] | Visual rating of weed control, Yellow Foxtail [4, 12]
4: Visual rating of weed control, Volunteer Corn [1, 9] | Visual rating of weed control, Giant Foxtail [2, 9] | Visual rating of weed control, Barnyard Grass [3, 10] | Visual rating of weed control, Yellow Foxtail [4, 9]
5: Visual rating of weed control, Volunteer Corn [1, 14] | Visual rating of weed control, Volunteer Corn [1, 20] | Visual rating of weed control, Giant Foxtail [2, 20] | Visual rating of weed control, Barnyard Grass [3, 9] | Visual rating of weed control, Barnyard Grass [3, 14] | Visual rating of weed control, Barnyard Grass [3, 20] | Visual rating of weed control, Yellow Foxtail [4, 14] | Visual rating of weed control, Yellow Foxtail [4, 19] | Visual rating of weed control, Yellow Foxtail [4, 20]
0: Visual rating of weed control, Volunteer Corn [1, 8] | Visual rating of weed control, Giant Foxtail [2, 8] | Visual rating of weed control, Barnyard Grass [3, 8] | Visual rating of weed control, Yellow Foxtail [4, 8]
9: Visual rating of weed control, Volunteer Corn [1, 18] | Visual rating of weed control, Giant Foxtail [2, 18] | Visual rating of weed control, Barnyard Grass [3, 18] | Visual rating of weed control, Yellow Foxtail [4, 17]
